Experiments:
Type in all cases: functional
[1] = Cytotoxicity against human CCRF-CEM cells assessed as growth inhibition at 10 uM after 48 hrs by SRB assay relative to control; conditions: read-out: GI
[2] = Cytotoxicity against human K562 cells assessed as growth inhibition at 10 uM after 48 hrs by SRB assay relative to control; conditions: K562, 48 h, read-out: GI
[3] = Cytotoxicity against human NCI-H23 cells assessed as growth inhibition at 10 uM after 48 hrs by SRB assay relative to control; conditions: NCI-H23, 48 h, read-out: GI
[4] = Cytotoxicity against human HCT116 cells assessed as growth inhibition at 10 uM after 48 hrs by SRB assay relative to control; conditions: HCT-116, 48 h, read-out: GI
[5] = Cytotoxicity against human KM12 cells assessed as growth inhibition at 10 uM after 48 hrs by SRB assay relative to control; conditions: KM12, 48 h, read-out: GI
[6] = Cytotoxicity against human SF268 cells assessed as growth inhibition at 10 uM after 48 hrs by SRB assay relative to control; conditions: SF-268, 48 h, read-out: GI
[7] = Cytotoxicity against human SF539 cells assessed as growth inhibition at 10 uM after 48 hrs by SRB assay relative to control; conditions: SF-539, 48 h, read-out: GI
[8] = Cytotoxicity against human SNB75 cells assessed as growth inhibition at 10 uM after 48 hrs by SRB assay relative to control; conditions: SNB-75, 48 h, read-out: GI
[9] = Cytotoxicity against human U251 cells assessed as growth inhibition at 10 uM after 48 hrs by SRB assay relative to control; conditions: U-251, 48 h, read-out: GI
[10] = Cytotoxicity against human M14 cells assessed as growth inhibition at 10 uM after 48 hrs by SRB assay relative to control; conditions: M14, 48 h, read-out: GI
[11] = Cytotoxicity against human MDA-MB-435 cells assessed as growth inhibition at 10 uM after 48 hrs by SRB assay relative to control; conditions: MDA-MB-435, 48 h, read-out: GI
[12] = Cytotoxicity against human SK-MEL-5 cells assessed as growth inhibition at 10 uM after 48 hrs by SRB assay relative to control; conditions: SK-MEL-5, 48 h, read-out: GI
[13] = Cytotoxicity against human UACC62 cells assessed as growth inhibition at 10 uM after 48 hrs by SRB assay relative to control; conditions: UACC-62, 48 h, read-out: GI
[14] = Cytotoxicity against human OVCAR5 cells assessed as growth inhibition at 10 uM after 48 hrs by SRB assay relative to control; conditions: OVCAR-5, 48 h, read-out: GI
[15] = Cytotoxicity against human SKOV3 cells assessed as growth inhibition at 10 uM after 48 hrs by SRB assay relative to control; conditions: SK-OV-3, 48 h, read-out: GI
[16] = Cytotoxicity against human 786-0 cells assessed as growth inhibition at 10 uM after 48 hrs by SRB assay relative to control; conditions: 786-0, 48 h, read-out: GI
[17] = Cytotoxicity against human Caki1 cells assessed as growth inhibition at 10 uM after 48 hrs by SRB assay relative to control; conditions: CAKI-1, 48 h, read-out: GI
[18] = Cytotoxicity against human SN12C cells assessed as growth inhibition at 10 uM after 48 hrs by SRB assay relative to control; conditions: read-out: GI
[19] = Cytotoxicity against human MCF7 cells assessed as growth inhibition at 10 uM after 48 hrs by SRB assay relative to control; conditions: MCF7, 48 h, read-out: GI
[20] = Cytotoxicity against human BT549 cells assessed as growth inhibition at 10 uM after 48 hrs by SRB assay relative to control; conditions: BT-549, 48 h, read-out: GI
[21] = Cytotoxicity against human T47D cells assessed as growth inhibition at 10 uM after 48 hrs by SRB assay relative to control; conditions: read-out: GI
[22] = Cytotoxicity against human HL-60(TB) cells assessed as growth inhibition after 48 hrs by SRB assay; conditions: HL-60, 48 h
[23] = Cytotoxicity against human K562 cells assessed as growth inhibition after 48 hrs by SRB assay; conditions: K562, 48 h
[24] = Cytotoxicity against human RPMI8226 cells assessed as growth inhibition after 48 hrs by SRB assay; conditions: RPMI-8226, 48 h
[25] = Cytotoxicity against human HOP62 cells assessed as growth inhibition after 48 hrs by SRB assay; conditions: HOP-62, 48 h
[26] = Cytotoxicity against human NCI-H460 cells assessed as growth inhibition after 48 hrs by SRB assay; conditions: NCI-H460, 48 h
[27] = Cytotoxicity against human HT-29 cells assessed as growth inhibition after 48 hrs by SRB assay; conditions: HT-29, 48 h
[28] = Cytotoxicity against human SF268 cells assessed as growth inhibition after 48 hrs by SRB assay; conditions: SF-268, 48 h
[29] = Cytotoxicity against human SF295 cells assessed as growth inhibition after 48 hrs by SRB assay; conditions: SF-295, 48 h
[30] = Cytotoxicity against human SNB75 cells assessed as growth inhibition after 48 hrs by SRB assay; conditions: SNB-75, 48 h
[31] = Cytotoxicity against human U251 cells assessed as growth inhibition after 48 hrs by SRB assay; conditions: U-251, 48 h
[32] = Cytotoxicity against human M14 cells assessed as growth inhibition after 48 hrs by SRB assay; conditions: M14, 48 h
[33] = Cytotoxicity against human MDA-MB-435 cells assessed as growth inhibition after 48 hrs by SRB assay; conditions: MDA-MB-435, 48 h
[34] = Cytotoxicity against human SK-MEL-28 cells assessed as growth inhibition after 48 hrs by SRB assay; conditions: SK-MEL-28, 48 h
[35] = Cytotoxicity against human UACC62 cells assessed as growth inhibition after 48 hrs by SRB assay; conditions: UACC-62, 48 h
[36] = Cytotoxicity against human NCI-ADR-RES cells assessed as growth inhibition after 48 hrs by SRB assay
[37] = Cytotoxicity against human SKOV3 cells assessed as growth inhibition after 48 hrs by SRB assay; conditions: SK-OV-3, 48 h
[38] = Cytotoxicity against human A498 cells assessed as growth inhibition after 48 hrs by SRB assay; conditions: A498, 48 h
[39] = Cytotoxicity against human UO31 cells assessed as growth inhibition after 48 hrs by SRB assay; conditions: UO-31, 48 h
[40] = Cytotoxicity against human 786-0 cells assessed as growth inhibition after 48 hrs by SRB assay; conditions: 786-0, 48 h
[41] = Cytotoxicity against human ACHN cells assessed as growth inhibition after 48 hrs by SRB assay
[42] = Cytotoxicity against human DU145 cells assessed as growth inhibition after 48 hrs by SRB assay; conditions: DU-145, 48 h
[43] = Cytotoxicity against human MCF7 cells assessed as growth inhibition after 48 hrs by SRB assay; conditions: MCF7, 48 h

COc1ccc(CN2c3ccccc3CCc3ccccc32)cc1F
inhibition of growth at 10 µM [1]: 96%
inhibition of growth at 10 µM [2]: 94%
inhibition of growth at 10 µM [3]: 61%
inhibition of growth at 10 µM [4]: 98%
inhibition of growth at 10 µM [5]: 83%
inhibition of growth at 10 µM [6]: 61%
inhibition of growth at 10 µM [7]: 100%
inhibition of growth at 10 µM [8]: 77%
inhibition of growth at 10 µM [9]: 79%
inhibition of growth at 10 µM [10]: 100%
inhibition of growth at 10 µM [11]: 100%
inhibition of growth at 10 µM [12]: 80%
inhibition of growth at 10 µM [13]: 75%
inhibition of growth at 10 µM [14]: 59%
inhibition of growth at 10 µM [15]: 62%
inhibition of growth at 10 µM [16]: 66%
inhibition of growth at 10 µM [17]: 70%
inhibition of growth at 10 µM [18]: 61%
inhibition of growth at 10 µM [19]: 80%
inhibition of growth at 10 µM [20]: 46%
inhibition of growth at 10 µM [21]: 53%
GI50 [22]: 241 nM
GI50 [23]: 402 nM
GI50 [24]: 644 nM
GI50 [25]: 529 nM
GI50 [26]: 419 nM
GI50 [27]: 319 nM
GI50 [28]: 660 nM
GI50 [29]: 333 nM
GI50 [30]: 277 nM
GI50 [31]: 496 nM
GI50 [32]: 354 nM
GI50 [33]: 187 nM
GI50 [34]: 820 nM
GI50 [35]: 804 nM
GI50 [36]: 456 nM
GI50 [37]: 471 nM
GI50 [38]: 339 nM
GI50 [39]: 814 nM
GI50 [40]: 572 nM
GI50 [41]: 604 nM
GI50 [42]: 481 nM
GI50 [43]: 352 nM

Reference: ChEMBL document CHEMBL3862012, “Methylene versus carbonyl bridge in the structure of new tubulin polymerization inhibitors with tricyclic A-rings” (Bioorg Med Chem, 2016)
